Assay results taken from patent US8765802B2, “Kinase inhibitors, compositions thereof, and methods of use therewith” (Provid Pharmaceuticals, Inc., priority 2007, dated 2014).

Molecular target: T1, Chk2 (Homo sapiens, UniProt O96017)
T1 construct: made in house; host or cells: E. coli BL21 Star (Invitrogen)
Assay: Chk2 inhibitor IMAP assay (high-throughput Chk2 screening assay)
Type: biochemical
Conditions: IMAP fluorescence polarization assay, 10 μM ATP
Method: Compounds set forth in Table 1 were tested in the Chk2 inhibitor IMAP assay described herein in Example 6.84. […] The letters given for the Chk2 EC50 values in Table 1 represent the following ranges: A=<100 nM; B=100-300 nM; C=300-1000 nM; D=1-10 μM; and E>10 μM.
Compounds can be screened for Chk2 inhibitory activity using a high-throughput screening assay based in the immobilized metal ion affinity-based fluorescence polarization (IMAP) assay developed by Molecular Devices. This assay is based on the high affinity binding of phosphate by immobilized metal (MIII) coordination complexes on nanoparticles. A fluorescein-labeled peptide substrate is used as the substrate for the kinase activity of Chk2 in the assay. The IMAP binding reagent stops the kinase reaction. The binding of the binding reagent results in a change in the rate of molecular motion of the peptide and causes an increase in the fluorescence polarization value observed for the fluorescein label attached to the end of the peptide. Thus, inhibition of Chk2 would result in a decrease in fluorescence polarization compared to control.
A specific protocol for screening Compounds for Chk2 inhibitory activity follows.
A Compound is supplied at 1 mM in 0.5 μl DMSO on 384 well plates (such as Greiner or Corning). After thawing, 5 μl DMSO is added to the drug plate. The drug plate is then incubated for 10 minutes to solubilize the Compound. An additional 19.5 μl of reaction buffer (10× stock prepared using 100 mM Tris-HCl, 100 mM MgCl2, 1% BSA, pH 7.2, stored at 4° C.)+1 mM DDT is added to bring the Compound to 4× final concentration. A positive control is also prepared at 4× final concentration. The following control wells are used: less enzyme control (all reagents except enzyme; 5 μl/well), less Compound control (all reagents except Compound; 5 μl/well), positive control (all reagents plus staurosporine at a final concentration of 5 μM; 5 μl/well).
Reagents are then added in the following order to give the following final concentration: 2.5 μl ATP/Chk2tide (Molecular Devices) (10 μM/100 nM final concentration), 1.25 μl Compound (5 μM final concentration inf 5.5% DMSO), and 1.25 μl Chk2 (1:500, 2.4 μg/mL final concentration).
Plates are covered and incubated at room temperature for 60 minutes.
IMAP binding reagent (Molecular Devices) is diluted 1:400 into binding buffer (Molecular Devices). 15 μl of this solution is then added to all wells and the plates are covered and incubated for 30 minutes.
Plates are read using a Tecan Ultra under the fluorescence polarization mode. Gain is set to the less enzyme and less Compound wells for each plate. Excitation 485 nm, emmission 535 nm, Z position 12519 and flashes 5 are used as settings. Raw data from the Tecan reader is imported into an access database for analysis.

T1 sequence (O96017 whole entry): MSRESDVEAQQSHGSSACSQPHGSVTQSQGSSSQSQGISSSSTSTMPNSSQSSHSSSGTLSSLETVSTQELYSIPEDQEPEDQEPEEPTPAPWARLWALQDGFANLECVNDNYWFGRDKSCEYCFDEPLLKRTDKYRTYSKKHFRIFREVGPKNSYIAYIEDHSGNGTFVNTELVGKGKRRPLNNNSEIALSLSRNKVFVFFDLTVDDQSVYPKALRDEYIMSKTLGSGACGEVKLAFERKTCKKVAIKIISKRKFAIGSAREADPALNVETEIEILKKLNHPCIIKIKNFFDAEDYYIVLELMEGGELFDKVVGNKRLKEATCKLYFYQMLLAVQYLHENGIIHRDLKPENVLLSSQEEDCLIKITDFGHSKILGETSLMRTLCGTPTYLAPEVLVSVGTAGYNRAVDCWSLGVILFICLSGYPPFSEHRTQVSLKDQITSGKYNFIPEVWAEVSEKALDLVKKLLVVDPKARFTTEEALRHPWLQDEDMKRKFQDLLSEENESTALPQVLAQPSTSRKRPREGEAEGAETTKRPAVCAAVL

SMILES	EC50
CCC/C(=N/NC(=N)N)c1ccc(NC(=O)c2cc3cc(OC)ccc3[nH]2)cc1 (single isomer, unassigned) [Compound 24]	< 100 nM
CCC/C(=N/NC(=N)N)c1ccc(NC(=O)c2cc3cc(OC)ccc3[nH]2)cc1 (single isomer, unassigned) [Compound 26]	300 to 1000 nM
CCCC(=NNC(=N)N)c1ccc2[nH]c(C(=O)Nc3ccc4cc[nH]c4c3)cc2c1 (single isomer, unassigned) [Compound 112]	< 100 nM
CCCC(=NNC(=N)N)c1ccc2[nH]c(C(=O)Nc3ccc4cc[nH]c4c3)cc2c1 (single isomer, unassigned) [Compound 113]	300 to 1000 nM
CC(C)CC(=NNC(=N)N)c1ccc2[nH]c(C(=O)Nc3ccc4cc[nH]c4c3)cc2c1 (single isomer, unassigned) [Compound 123]	< 100 nM
CC(C)CC(=NNC(=N)N)c1ccc2[nH]c(C(=O)Nc3ccc4cc[nH]c4c3)cc2c1 (single isomer, unassigned) [Compound 124]	1000 to 10000 nM
CCC/C(=N\NC(=N)N)c1ccc(NC(=O)Nc2ccc(/C(C)=N/NC(=N)N)cc2)cc1 [Compound 1]	< 100 nM
C/C(=N\NC(=N)N)c1ccc(NC(=O)c2c[nH]c3ccccc23)cc1 [Compound 2]	1000 to 10000 nM
CCCC(=NNC(=N)N)c1ccc(NC(=O)Nc2ccc(C(CCC)=NNC(=N)N)cc2)cc1 [Compound 3]	< 100 nM
C/C(=N\NC(=N)N)c1ccc(NC(=O)Nc2ccc(/C(C)=N/NC(=N)N)c(C)c2)cc1 [Compound 4]	100 to 300 nM
CC(=NNC(=N)N)c1ccc(NC(=O)Nc2ccc3c(c2)CCC(C)C3=NNC(=N)N)cc1 (stereo not shown) [Compound 5]	300 to 1000 nM
CC(=NNC(=N)N)c1ccc(NC(=O)Nc2ccc3c(c2)CCC3=NNC(=N)N)cc1 [Compound 6]	300 to 1000 nM
C/C(=N\NC(=N)N)c1ccc(NC(=O)c2cc3ccccc3[nH]2)cc1 [Compound 7]	300 to 1000 nM
C/C(=N\NC(=N)N)c1ccc(NC(=O)c2cc3ccccc3o2)cc1 [Compound 8]	300 to 1000 nM
C/C(=N\NC(=N)N)c1ccc(NC(=O)c2cc3cc(C)ccc3[nH]2)cc1 [Compound 9]	100 to 300 nM
COc1ccc2[nH]c(C(=O)Nc3ccc(/C(C)=N/NC(=N)N)cc3)cc2c1 [Compound 10]	< 100 nM
C/C(=N\NC(=N)N)c1ccc(NC(=O)c2cc3cc(O)ccc3[nH]2)cc1 [Compound 11]	300 to 1000 nM
C/C(=N/NC(=N)N)c1ccc(NC(=O)Nc2ccc(NC(=O)/C(C)=N/NC(=N)N)cc2)cc1 [Compound 12]	300 to 1000 nM
C/C(=N/N=C(\N)c1ccccn1)c1ccc(NC(=O)Nc2ccc(/C(C)=N/N=C(\N)c3ccccn3)cc2)cc1 [Compound 13]	300 to 1000 nM
C/C(=N/NC(=N)N)c1ccc(NC(=O)Nc2ccc(/C(C)=N/N=C(\N)c3ccccn3)cc2)cc1 [Compound 14]	300 to 1000 nM
C/C(=N\NC1=NCCN1)c1ccc(NC(=O)Nc2ccc(/C(C)=N/NC3=NCCN3)cc2)cc1 [Compound 15]	< 100 nM
C/C(=N\NC(=N)N)c1ccc(NC(=O)Nc2ccc(/C(C)=N/NC3=NCCN3)cc2)cc1 [Compound 16]	< 100 nM

SMILES	EC50
C/C(=N\NC(=N)N)c1ccc(NC(=O)c2cc3cc(/C(C)=N/NC(=N)N)ccc3[nH]2)cc1 [Compound 17]	< 100 nM
COc1ccc2[nH]c(C(=O)Nc3ccc(/C(C)=N/NC4=NCCN4)cc3)cc2c1 [Compound 19]	100 to 300 nM
C/C(=N\NC(=N)N)c1ccc(NC(=O)Nc2ccc(C#N)cc2)cc1 [Compound 20]	< 100 nM
CNC(=O)Oc1ccc2[nH]c(C(=O)Nc3ccc(/C(C)=N\NC(=N)N)cc3)cc2c1 [Compound 21]	100 to 300 nM
C/C(=N\NC1=NCCN1)c1ccc(NC(=O)c2cc3cccc([N+](=O)[O-])c3[nH]2)cc1 [Compound 22]	< 100 nM
COc1ccc2[nH]c(C(=O)Nc3ccc(/C(C)=N/NC4=NCCN4)cc3)cc2c1 [Compound 23]	< 100 nM
C/C(=N\NC(=N)N)c1ccc(NC(=O)c2cc3cc(N)ccc3[nH]2)cc1 [Compound 25]	300 to 1000 nM
C/C(=N\NC(=N)N)c1ccc(NC(=O)c2cc3cc(C(N)=O)ccc3[nH]2)cc1 [Compound 27]	100 to 300 nM
COc1cc2cc(C(=O)Nc3ccc(/C(C)=N/NC(=N)N)cc3)[nH]c2cc1OCc1ccccc1 [Compound 29]	1000 to 10000 nM
C/C(=N/NC(=N)N)c1ccc(NC(=O)c2[nH]c3ccccc3c2Br)cc1 [Compound 30]	300 to 1000 nM
COc1cccc2cc(C(=O)Nc3ccc(/C(C)=N/NC(=N)N)cc3)oc12 [Compound 31]	300 to 1000 nM
C/C(=N\NC(=N)N)c1ccc(NC(=O)c2cc3cc(Br)ccc3o2)cc1 [Compound 32]	1000 to 10000 nM
C/C(=N/NC(=N)N)c1ccc(NC(=O)c2cc3cc(OC(F)(F)F)ccc3[nH]2)cc1 [Compound 33]	1000 to 10000 nM
C/C(=N/NC(=N)N)c1ccc(NC(=O)c2cc3cc(OCc4ccccc4)ccc3[nH]2)cc1 [Compound 34]	1000 to 10000 nM
CC(=NNC(=N)N)c1ccc(NC(=O)c2cc3cc([N+](=O)[O-])ccc3[nH]2)cc1 [Compound 35]	> 10000 nM
CC(=O)c1ccc(NC(=O)Nc2ccc(/C(C)=N/NC(=N)N)cc2)cc1 [Compound 36]	100 to 300 nM
C/C(=N\NC(=N)N)c1ccc(NC(=O)Nc2ccc(Br)cc2)cc1 [Compound 37]	100 to 300 nM
C/C(=N\NC(=N)N)c1ccc(NC(=O)Nc2ccc(I)cc2)cc1 [Compound 38]	300 to 1000 nM
C/C(=N\NC(=N)N)c1ccc(NC(=O)Nc2ccc(NC(=O)Nc3ccc(/C(C)=N/NC(=N)N)cc3)cc2)cc1 [Compound 39]	< 100 nM
COc1cc(OC)c2cc(C(=O)Nc3ccc(/C(C)=N/NC(=N)N)cc3)[nH]c2c1 [Compound 40]	1000 to 10000 nM
COc1ccc2[nH]nc(C(=O)Nc3ccc(/C(C)=N/NC(=N)N)cc3)c2c1 [Compound 41]	1000 to 10000 nM
COc1ccc2[nH]nc(C(=O)Nc3ccc(/C(C)=N/NC(=N)N)cc3)c2c1 [Compound 42]	> 10000 nM

SMILES	EC50
COc1ccc2nc(NC(=O)c3ccc(/C(C)=N/NC(=N)N)cc3)sc2c1 [Compound 43]	1000 to 10000 nM
COc1cccc2sc(NC(=O)c3ccc(/C(C)=N\NC(=N)N)cc3)nc12 [Compound 44]	> 10000 nM
COc1cc2nc(NC(=O)c3ccc(/C(C)=N\NC(=N)N)cc3)sc2cc1OC [Compound 45]	1000 to 10000 nM
COc1cc2nc(NC(=O)c3ccc(/C(C)=N/NC(=N)N)cc3)sc2cc1OC [Compound 46]	1000 to 10000 nM
C/C(=N\NC(=N)N)c1ccc(NC(=O)c2ccc(-c3cnc(N)nc3)cc2)cc1 [Compound 47]	300 to 1000 nM
C/C(=N\NC(=N)N)c1ccc(NC(=O)Nc2ccc(-c3csc(NN)n3)cc2)cc1 [Compound 48]	> 10000 nM
C/C(=N\NC(=N)N)c1ccc2[nH]c(C(=O)Nc3ccc(N4CCNCC4)cc3)cc2c1 [Compound 49]	100 to 300 nM
C/C(=N\NC(=N)N)c1ccc(NC(=O)Nc2ccc(C)cc2)cc1 [Compound 50]	1000 to 10000 nM
C/C(=N\NC(=N)N)c1ccc(NC(=O)Nc2ccc(/C(=N/NC(=N)N)C(C)C)cc2)cc1 [Compound 51]	1000 to 10000 nM
C/C(=N\NC(=N)N)c1ccc(NC(=O)c2cc3ccccc3o2)cc1 [Compound 52]	1000 to 10000 nM
CC/C(=N\NC(=N)N)c1ccc(NC(=O)c2ccco2)cc1 [Compound 53]	1000 to 10000 nM
C/C(=N\NC(=N)N)c1ccc(NC(=O)Nc2ccc(/C(=N/NC(=N)N)c3ccccc3)cc2)cc1 [Compound 54]	1000 to 10000 nM
C/C(=N\NC(=N)N)c1ccc(NC(=O)Nc2ccc(/C(=N/NC(=N)N)c3ccccc3)cc2)cc1 [Compound 55]	> 10000 nM
COC(=O)c1ccc(NC(=O)Nc2ccc(/C(C)=N/NC(=N)N)cc2)cc1 [Compound 56]	1000 to 10000 nM
C/C(=N\NC(=N)N)c1ccc(NC(=O)Nc2ccc(Cl)cc2)cc1 [Compound 57]	1000 to 10000 nM
C/C(=N\NC(=N)N)c1ccc(NC(=O)c2cc3ccccc3cn2)cc1 [Compound 58]	1000 to 10000 nM
C/C(=N/NC(=N)N)c1ccc(NC(=O)Nc2ccc(/C(C)=N/NC(=N)N)cc2)c2ccccc12 [Compound 60]	1000 to 10000 nM
C/C(=N/NC(=N)N)c1ccc(NC(=O)Nc2ccc(/C(C)=N/NC(=N)N)cc2)cc1C [Compound 61]	> 10000 nM
CC(=NNC(=N)N)c1ccc(NC(=O)Nc2ccc(C(C)CNC(=N)N)cc2)cc1 (stereo not shown) [Compound 62]	> 10000 nM
CSC(=N)N/N=C(\C)c1ccc(NC(=O)Nc2ccc(/C(C)=N/NC(=N)SC)cc2)cc1 [Compound 63]	1000 to 10000 nM
